This is an account of results in patent US9828385B2, “Spiro-oxazolones” (Hoffmann-La Roche Inc., priority 2014, dated 2017).

Structures are written as SMILES.

In the assay the target is T1, human V1a receptor (Homo sapiens, UniProt P37288).
T1 construct: expressed in transfected cells; host or cells: HEK293 cells, transiently transfected; cell membranes
Briefly: human V1a receptor binding studies (3H-Vasopressin, SPA beads). The following applies: membranes of HEK293 cells transiently transfected with human V1a receptor, Ki by Cheng-Prussoff from IC50, read-out: pKi hV1a (converted). In a few lines: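 Membranes from transiently transfected HEK293 cells expressing cloned human V1a receptor, on yttrium silicate SPA beads, competed against 4 nM 3H-vasopressin (added stock concentration) in Tris buffer with NaCl, KCl, CaCl2, MgCl2 for 1 h at room temperature. Nonspecific binding with cold vasopressin; IC50 by nonlinear fit, Ki via Cheng-Prusoff.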

T1 sequence (P37288 whole entry): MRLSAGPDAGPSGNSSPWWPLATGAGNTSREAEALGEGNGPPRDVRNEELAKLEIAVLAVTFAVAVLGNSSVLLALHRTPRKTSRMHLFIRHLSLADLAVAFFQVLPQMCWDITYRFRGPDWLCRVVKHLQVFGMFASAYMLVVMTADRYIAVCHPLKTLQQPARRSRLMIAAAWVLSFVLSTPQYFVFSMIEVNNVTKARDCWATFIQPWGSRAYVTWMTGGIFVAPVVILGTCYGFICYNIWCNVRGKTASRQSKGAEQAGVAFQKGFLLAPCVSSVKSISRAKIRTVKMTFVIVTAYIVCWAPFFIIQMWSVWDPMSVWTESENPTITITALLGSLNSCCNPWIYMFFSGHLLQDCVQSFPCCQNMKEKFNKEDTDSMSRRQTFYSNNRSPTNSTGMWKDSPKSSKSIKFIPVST

For `O=C1N=C(N2CCC3(CC2)OCc2ncccc23)OC1Cc1ccccc1` (stereo not shown) [Example 28, 5-Benzyl-2-(1′H,7H-spiro[furo[3,4-b]pyridine-5,4′-piperidin]-1′-yl)-1,3-oxazol-4(5H)-one], the Ki was 79.4 nM.
Next, `O=C1N=C(N2CCC3(CC2)OCc2ccccc23)OC1C(F)c1ccc(Cl)cc1` (single isomer, unassigned) [Example 46, 5-((4-Chlorophenyl)fluoromethyl)-2-(1′H,3H-spiro[2-benzofuran-1,4′-piperidin]-1′-yl)-1,3-oxazol-4(5H)-one diastereomer a, enantiomer A]: 31.6 nM; `CC1(Cc2ccc(Cl)cc2)OC(N2CCC3(CC2)OC(=O)c2ccccc23)=NC1=O` (single isomer, unassigned; enantiomer a) [Example 80, 1′-[5-(4-Chlorobenzyl)-5-methyl-4-oxo-4,5-dihydro-1,3-oxazol-2-yl]-3H-spiro[2-benzofuran-1,4′-piperidin]-3-one enantiomer A]: 20 nM.
To `O=C1N=C(N2CCC3(CC2)OCc2c(F)cccc23)OC1Cc1ccccc1` (stereo not shown) [Example 24, 5-Benzyl-2-(4-fluoro-1′H,3H-spiro[2-benzofuran-1,4′-piperidin]-1′-yl)-1,3-oxazol-4(5H)-one] belongs 6.31 nM; to `CC(C)CC1OC(N2CCC3(CC2)OCc2ccccc23)=NC1=O` (stereo not shown) [Example 7, 5-(2-Methylpropyl)-2-(1′H,3H-spiro[2-benzofuran-1,4′-piperidin]-1′-yl)-1,3-oxazol-4(5H)-one], 20 nM.
Consider `O=C1N=C(N2CCC3(CC2)OCc2ccccc23)OC1C(O)c1ccc(Cl)cc1` (single isomer, unassigned; diastereomer a) [Example 43, (+)-5-[(4-Chlorophenyl)(hydroxy)methyl]-2-(1′H,3H-spiro[2-benzofuran-1,4′-piperidin]-1′-yl)-1,3-oxazol-4(5H)-one diastereomer a], for which the Ki was 15.8 nM.
Consider `O=C1N=C(N2CCC3(CC2)OCc2ccccc23)OC1C(O)c1ccccc1` (single isomer, unassigned) [Example 39, 5-(Hydroxy(phenyl)methyl)-2-(1′H,3H-spiro[2-benzofuran-1,4′-piperidin]-1′-yl)-1,3-oxazol-4(5H)-one diastereomer b, enantiomer B], for which the Ki was 126 nM.
For the compound `CCOCC1(C)OC(N2CCC3(CC2)OCc2ccccc23)=NC1=O` (single isomer, unassigned; (-)) [Example 97, (−)-5-(Ethoxymethyl)-5-methyl-2-(1′H,3H-spiro[2-benzofuran-1,4′-piperidin]-1′-yl)-1,3-oxazol-4(5H)-one], the Ki is 1580 nM.
Next, `O=C1N=C(N2CCC3(CC2)OCc2ccccc23)OC12CCCC2` [Example 112, 2-(3H-Spiro[isobenzofuran-1,4′-piperidine]-1′-yl)-1-oxa-3-azaspiro[4.4]non-2-en-4-one]: 158 nM; `CC(c1ccccc1)C1(C)OC(N2CCC3(CC2)OCc2ccccc23)=NC1=O` (single isomer, unassigned; diastereomer b) [Example 111, (+)-5-Methyl-5-(1-phenylethyl)-2-(1′H,3H-spiro[2-benzofuran-1,4′-piperidin]-1′-yl)-1,3-oxazol-4(5H)-one diastereomer b]: 251 nM; `O=C1N=C(N2CCC3(CC2)OCc2ccccc23)OC12C[C@@H]1OS(=O)O[C@@H]1C2` (stereo partly shown) [Example 147, 2′-(1′H,3H-Spiro[2-benzofuran-1,4′-piperidin]-1′-yl)-3a,4,6,6a-tetrahydro-4′H-spiro[cyclopenta[d][1,3,2]dioxathiole-5,5′-[1,3]oxazol]-4′-one 2-oxide]: 158 nM.
To `CCCCC1(C)OC(N2CCC3(CC2)OCc2ccccc23)=NC1=O` (stereo not shown) [Example 66, 5-Butyl-5-methyl-2-(1′H,3H-spiro[2-benzofuran-1,4′-piperidin]-1′-yl)-1,3-oxazol-4(5H)-one] belongs 39.8 nM; to `O=C1OC2(CCN(C3=NC(=O)C(Cc4ccc(Cl)cc4)(Cc4ccc(Cl)cc4)O3)CC2)c2ccccc21` [Example 95, 1′-[5,5-Bis(4-chlorobenzyl)-4-oxo-4,5-dihydro-1,3-oxazol-2-yl]-3H-spiro[2-benzofuran-1,4′-piperidin]-3-one], 5.01 nM.
On to `O=C1N=C(N2CCC3(CC2)OCc2ccc(F)cc23)OC1Cc1ccccc1` (stereo not shown) [Example 25, 5-Benzyl-2-(6-fluoro-1′H,3H-spiro[2-benzofuran-1,4′-piperidin]-1′-yl)-1,3-oxazol-4(5H)-one], for which the Ki is 6.31 nM.
Next, `O=C1C[C@@H]2CC3(C[C@@H]2C1)OC(N1CCC2(CC1)OCc1ccccc12)=NC3=O` (stereo partly shown) [Example 143, 2-(1′H,3H-Spiro[2-benzofuran-1,4′-piperidin]-1′-yl)-3a′,4′,6′,6a′-tetrahydro-1′H,4H-spiro[1,3-oxazole-5,2′-pentalene]-4,5′(3′H)-dione]: 100 nM; `CCCCC1(C)OC(N2CCC3(CC2)OCc2ccccc23)=NC1=O` (single isomer, unassigned; (-)) [Example 68, (−)-5-Butyl-5-methyl-2-(1′H,3H-spiro[2-benzofuran-1,4′-piperidin]-1′-yl)-1,3-oxazol-4(5H)-one]: 200 nM; `CC1(CC2CCCC2)OC(N2CCC3(CC2)OCc2ccccc23)=NC1=O` (stereo not shown) [Example 76, 5-(Cyclopentylmethyl)-5-methyl-2-(1′H,3H-spiro[2-benzofuran-1,4′-piperidin]-1′-yl)-1,3-oxazol-4(5H)-one]: 5.01 nM.
Regarding `CCCCCC1CCC2(CC1)OC(N1CCC3(CC1)OC(=O)c1ccccc13)=NC2=O` (single isomer, unassigned; diastereomer b) [Example 127, 1′-[4-Oxo-8-pentyl-1-oxa-3-azaspiro[4.5]dec-2-en-2-yl]-3H-spiro[2-benzofuran-1,4′-piperidin]-3-one diastereomer b], the Ki is 251 nM.
In the case of `O=C1OC2(CCN(C3=NC(=O)C4(CCC(F)(F)CC4)O3)CC2)c2ccccc21` [Example 131, 1′-(8,8-Difluoro-4-oxo-1-oxa-3-azaspiro[4.5]dec-2-en-2-yl)-3H-spiro[2-benzofuran-1,4′-piperidin]-3-one], the Ki was 50.1 nM.
To `O=C1N=C(N2CCC3(CC2)OCc2ccccc23)OC1CC1CCCC1` (single isomer, unassigned; enantiomer b) [Example 14, 5-(Cyclopentylmethyl)-2-(1′H,3H-spiro[2-benzofuran-1,4′-piperidin]-1′-yl)-1,3-oxazol-4(5H)-one enantiomer B] belongs 2.51 nM; to `O=C1N=C(N2CCC3(CC2)OCc2ccccc23)OC12CCC(F)(F)CC2` [Example 130, 8,8-Difluoro-2-(1′H,3H-spiro[2-benzofuran-1,4′-piperidin]-1′-yl)-1-oxa-3-azaspiro[4.5]dec-2-en-4-one], 6.31 nM.
Take `CC1(CC2CCOC2)OC(N2CCC3(CC2)OCc2ccccc23)=NC1=O` (single isomer, unassigned; diastereomer b) [Example 100, 5-Methyl-2-(1′H,3H-spiro[2-benzofuran-1,4′-piperidin]-1′-yl)-5-(tetrahydrofuran-3-ylmethyl)-1,3-oxazol-4(5H)-one diastereomer b]: the Ki was 126 nM.
